Measured values as given in US7932262B2 (Novartis AG, priority 2006, dated 2011).
Read-outs that look alike come from different tables or passages of the source. Each block holds one compound with its values, some of them ahead of it.

Experiments:
PDK1 kinase = target: T1, PDK1 kinase (Homo sapiens, UniProt O15530); test: PDK1 Kinase Alpha Screen Assay; type: biochemical
T1 sequence (O15530 1-556): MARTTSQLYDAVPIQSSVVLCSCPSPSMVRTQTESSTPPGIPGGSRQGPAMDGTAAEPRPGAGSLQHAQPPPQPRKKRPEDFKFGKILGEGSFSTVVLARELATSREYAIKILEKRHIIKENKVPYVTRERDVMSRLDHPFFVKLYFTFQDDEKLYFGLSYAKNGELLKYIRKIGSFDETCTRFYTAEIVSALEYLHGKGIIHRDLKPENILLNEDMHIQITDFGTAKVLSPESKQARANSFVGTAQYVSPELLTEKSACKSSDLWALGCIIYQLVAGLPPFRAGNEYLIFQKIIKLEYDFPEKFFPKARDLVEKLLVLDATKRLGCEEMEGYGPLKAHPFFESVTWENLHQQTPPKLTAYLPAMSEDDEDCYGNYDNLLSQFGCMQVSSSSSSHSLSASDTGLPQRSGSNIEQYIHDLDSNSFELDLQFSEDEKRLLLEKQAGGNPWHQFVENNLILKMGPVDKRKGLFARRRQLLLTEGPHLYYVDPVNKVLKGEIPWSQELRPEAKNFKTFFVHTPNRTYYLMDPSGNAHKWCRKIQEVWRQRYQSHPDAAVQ
How it was run: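 PDK1, 10 uM ATP, 50 nM biotin-PDK1-4 peptide; 50 mM Tris pH 7.5, 10 mM MgCl2, 0.1% BSA, 0.01% Tween-20, 2 mM DTT, 2.5% DMSO; 3-18 h. EDTA stop; AlphaScreen, phospho-Ser/Thr antibody, overnight RT.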

A2780 cells = test: Cell Proliferation Assay (Cell Titer Glo), A2780; type: cell-based; details: Homo sapiens, read-out: CPEC50 A2780
Description: IV. Cell Proliferation Assay Protocol:
A2780, PC-3, or PC3MM cells were seeded at 1000 cells/well in 100 μL/well (10.000 cells/mL) growth media in 96-well plates. Cells were allowed to adhere to the bottom of plates for 3-5 hours in a 37° C. 5% CO2 incubator. Compounds were dissolved in DMSO and then transferred to the cell plates. The cells were incubated with the compounds for 3 days in a 37° C. 5% CO2 incubator. The growth medium containing the compounds was then removed from the cells and fresh medium was added, followed by 100 μL of Cell Titer Glo assay reagent (Promega). This mixture was shaken for 1 minute and then incubated without shaking for 10 minutes. Activity determinations for the compounds were made by detection on a Trilux Instrument.

PC-3 cells = test: Cell Proliferation Assay (Cell Titer Glo), PC-3 cell line; type: cell-based; details: Homo sapiens, PC-3, PC3 cells; read-out: CPEC50 PC3
How it was run: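 Cell Titer Glo luminescence, read after fresh medium replaced the dosing medium, gave viability of PC-3 cells plated at 1000 cells/well. Compounds, 1:3 serially diluted in DMSO at 500× and then in medium, were added after 3-5 h adhesion and incubated 3 days at 37° C.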

[1] = 72 h, A2780 cells, 3 days incubation
[2] = Cell Proliferation Assay, A2780
[3] = cell proliferation, A2780 cells
[4] = head of the second part of Table 4: BV11261, read-out: PDK1 BV11261

EC50 (A2780 cells; [2]): 5 to 10 µM
Compound: CC(=O)NCCNC(=O)c1cccc2cnc(Nc3ccc(S(N)(=O)=O)cc3)nc12 [Compound 626, N-(2-acetamidoethyl)-2-(4-sulfamoylphenylamino)quinazoline-8-carboxamide]

EC50 (A2780 cells; [2]): 5 to 10 µM
Compound: CS(=O)(=O)CCNC(=O)c1cccc2cnc(Nc3ccc(S(N)(=O)=O)cc3)nc12 [Compound 627, N-(2-(methylsulfonyl)ethyl)-2-(4-sulfamoylphenylamino)quinazoline-8-carboxamide]

EC50 (A2780 cells; [2]): 5 to 10 µM
Compound: NS(=O)(=O)c1ccc(Nc2ncc3cc(F)cc(-c4ccc(F)nc4)c3n2)cc1 [Compound 633, 4-(6-fluoro-8-(6-fluoropyridin-3-yl)quinazolin-2-ylamino)benzenesulfonamide]

EC50 (A2780 cells; [2]): 5 to 10 µM
Compound: COc1cc(-c2ccc3cnc(Nc4ccc(S(N)(=O)=O)cc4)nc3c2)c(Cl)cn1 [Compound 696, 4-(7-(5-chloro-2-methoxypyridin-4-yl)quinazolin-2-ylamino)benzenesulfonamide]

EC50 (A2780 cells; [3]): < 5 µM
Compound: COc1cccc(COc2cccc3cnc(Nc4ccc(S(N)(=O)=O)cc4)nc23)c1 [Compound 719, 4-(8-(3-methoxybenzyloxy)quinazolin-2-ylamino)benzenesulfonamide]

EC50 (A2780 cells; [3]): 5 to 10 µM
Compound: NS(=O)(=O)c1ccc(Nc2ncc3cccc(OCc4ccc5nonc5c4)c3n2)cc1 [Compound 720, 4-(8-(benzo[c][1,2,5]oxadiazol-5-ylmethoxy)quinazolin-2-ylamino)benzenesulfonamide]

EC50 (A2780 cells; [3]): 5 to 10 µM
Compound: c1cc(OC2CCCC2)c2nc(NC3CC3)ncc2c1 [Compound 728, 8-(cyclopentyloxy)-N-cyclopropylquinazolin-2-amine]

EC50 (A2780 cells; [3]): 5 to 10 µM
Compound: Fc1ccc(F)c(CNc2ncc3cccc(OC4CCCC4)c3n2)c1 [Compound 729, 8-(cyclopentyloxy)-N-(2,5-difluorobenzyl)quinazolin-2-amine]

EC50 (A2780 cells; [3]): < 5 µM
Compound: Oc1cccc2cnc(NCc3cc(F)ccc3F)nc12 [Compound 730, 2-(2,5-difluorobenzylamino)quinazolin-8-ol]

EC50 (A2780 cells; [3]): 5 to 10 µM
Compound: NS(=O)(=O)c1ccc(Nc2ncc3ccc(-c4ccc5c(c4)OCO5)cc3n2)cc1 [Compound 791, 4-(7-(benzo[d][1,3]dioxol-5-yl)quinazolin-2-ylamino)benzenesulfonamide]

IC50 (PDK1 kinase; [4]): < 5 µM | EC50 (PC-3 cells): < 5 µM
Compound: COc1c(-c2cnn(C)c2)cc(Cl)c2cnc(Nc3ccc(C(=O)NC4CC4)cc3)nc12 [Compound 1038, 4-(5-chloro-8-methoxy-7-(1-methyl-1H-pyrazol-4-yl)quinazolin-2-ylamino)-N-cyclopropylbenzamide]

IC50 (PDK1 kinase; [4]): < 5 µM | EC50 (PC-3 cells): < 5 µM
Compound: C#Cc1cc2cnc(Nc3ccc(C(=O)NC(C)C)cc3)nc2cc1-c1ccc2c(c1)CCNC2=O [Compound 1039, 4-(6-ethynyl-7-(1-oxo-1,2,3,4-tetrahydroisoquinolin-6-yl)quinazolin-2-ylamino)-N-isopropylbenzamide]

IC50 (PDK1 kinase; [4]): < 5 µM | EC50 (PC-3 cells): 5 to 10 µM
Compound: CC(C)NC(=O)c1ccc(Nc2ncc3ccc(-c4ccc5c(c4)CCNC5=O)cc3n2)cc1 [Compound 1040, N-isopropyl-4-(7-(1-oxo-1,2,3,4-tetrahydroisoquinolin-6-yl)quinazolin-2-ylamino)benzamide]

IC50 (PDK1 kinase; [4]): < 5 µM | EC50 (PC-3 cells): 5 to 10 µM
Compound: C#Cc1cc2cnc(Nc3ccc(C(=O)N4CCOCC4)cc3)nc2cc1-c1ccc2c(c1)CCNC2=O [Compound 1041, 6-(6-ethynyl-2-(4-(morpholine-4-carbonyl)phenylamino)quinazolin-7-yl)-3,4-dihydroisoquinolin-1(2H)-one]

Second part, the compound before the results:

Compound: CC(C)N1CCC(Oc2cccc3cnc(Nc4cccc(S(=O)(=O)N5CCOCC5)c4)nc23)CC1 [Compound 6, [8-(1-Isopropyl-piper-idin-4-yloxy)-quina-zolin-2-yl]-[3-(morpholine-4-sul-fonyl)-phenyl]-amine]
IC50 (PDK1 kinase; read-out: PDK1 IC50): < 5 µM | EC50 (A2780 cells; [1]): < 5 µM

Compound: CN1CCN(S(=O)(=O)c2cccc(Nc3ncc4cccc(OC5CCNCC5)c4n3)c2)CC1 [Compound 7, [3-(4-Methyl-piper-azine-1-sulfonyl)-phenyl]-[8-(piperidin-4-yloxy)-quinazolin-2-yl]-amine]
IC50 (PDK1 kinase; read-out: PDK1 IC50): < 5 µM | EC50 (A2780 cells; [1]): < 5 µM

Compound: CC(C)NS(=O)(=O)c1cccc(Nc2ncc3cccc(OC4CCNCC4)c3n2)c1 [Compound 8, N-Isopropyl-3-[8-(piperidin-4-yloxy)-quinazolin-2-yl-amino]-benzenesulfonamide]
IC50 (PDK1 kinase; read-out: PDK1 IC50): < 5 µM | EC50 (A2780 cells; [1]): < 5 µM

Compound: COCCNS(=O)(=O)c1cccc(Nc2ncc3cccc(OC4CCNCC4)c3n2)c1 [Compound 9, N-(2-Methoxy-ethyl)-3-[8-(piperidin-4-yloxy)-quinazolin-2-ylamino]-benzenesulfonamide]
IC50 (PDK1 kinase; read-out: PDK1 IC50): < 5 µM | EC50 (A2780 cells; [1]): < 5 µM

Compound: CN1CCN(S(=O)(=O)c2ccc(Nc3ncc4cccc(OC5CCNCC5)c4n3)cc2)CC1 [Compound 10, [4-(4-Methyl-piper-azine-1-sulfonyl)-phenyl]-[8-(piper-idin-4-yloxy)-quinazolin-2-yl]-amine]
IC50 (PDK1 kinase; read-out: PDK1 IC50): < 5 µM | EC50 (A2780 cells; [1]): < 5 µM

Compound: O=S(=O)(NCCN1CCCC1)c1cccc(Nc2ncc3cccc(OC4CCNCC4)c3n2)c1 [Compound 15, 3-[8-(Piperidin-4-yl-oxy)-quinazolin-2-ylamino]-N-(2-pyrrolidin-1-yl-ethyl)-benzenesulfonamide]
IC50 (PDK1 kinase; read-out: PDK1 IC50): < 5 µM | EC50 (A2780 cells; [1]): 5 to 10 µM

Compound: O=S(=O)(NC1CC1)c1cccc(Nc2ncc3cccc(OC4CCNCC4)c3n2)c1 [Compound 16, N-Cyclopropyl-3-[8-(piperidin-4-yloxy)-quinazolin-2-ylamino]-benzenesulfonamide]
IC50 (PDK1 kinase; read-out: PDK1 IC50): < 5 µM | EC50 (A2780 cells; [1]): < 5 µM

Compound: COc1ncccc1-c1ccc2cnc(Nc3ccc(S(N)(=O)=O)cc3)nc2c1 [Compound 314, 4-(7-(2-methoxypyridin-3-yl)quinazolin-2-ylamino)benzenesulfonamide]
EC50 (A2780 cells; [2]): 5 to 10 µM

Compound: Cn1cc(-c2ccc3cnc(Nc4ccc(S(=O)(=O)N5CCOCC5)cc4)nc3c2)cn1 [Compound 317, 7-(1-methyl-1H-pyrazol-4-yl)-N-(4-(morpholinosulfonyl)phenyl)quinazolin-2-amine]
EC50 (A2780 cells; [2]): < 5 µM

Compound: NS(=O)(=O)c1ccc(Nc2ncc3cccc(C(=O)NCc4ccccn4)c3n2)cc1 [Compound 419, N-(pyridin-2-ylmethyl)-2-(4-sulfamoylphenylamino)quinazoline-8-carboxamide]
EC50 (A2780 cells; [2]): 5 to 10 µM

Compound: CC(C)(C)OC(=O)N1CCC(Oc2c(Br)ccc3cnc(Nc4ccc(S(N)(=O)=O)cc4)nc23)CC1 [Compound 420, tert-butyl 4-(7-bromo-2-(4-sulfamoylphenylamino)quinazolin-8-yloxy)piperidine-1-carboxylate]
EC50 (A2780 cells; [2]): < 5 µM

Compound: CC(C)Oc1cccc2cnc(Nc3cccnc3)nc12 [Compound 522, 8-isopropoxy-N-(pyridin-3-yl)quinazolin-2-amine]
EC50 (A2780 cells; [2]): 5 to 10 µM

Compound: CC(C)Oc1cccc2cnc(NC3CCN(C)CC3)nc12 [Compound 557, 8-isopropoxy-N-(1-methylpiperidin-4-yl)quinazolin-2-amine]
EC50 (A2780 cells; [2]): 5 to 10 µM

Compound: CC(C)Oc1cccc2cnc(NCc3ccc(S(N)(=O)=O)cc3)nc12 [Compound 558, 4-((8-isopropoxyquinazolin-2-ylamino)methyl)benzenesulfonamide]
EC50 (A2780 cells; [2]): 5 to 10 µM

Compound: COc1cc(-c2ccc3cnc(Nc4ccc(S(N)(=O)=O)cc4)nc3c2)ccn1 [Compound 560, 4-(7-(2-methoxypyridin-4-yl)quinazolin-2-ylamino)benzenesulfonamide]
EC50 (A2780 cells; [2]): 5 to 10 µM

Compound: CNC(=O)c1cc(Oc2ccc3cnc(Nc4ccc(S(N)(=O)=O)cc4)nc3c2)ccn1 [Compound 563, N-methyl-4-(2-(4-sulfamoylphenylamino)quinazolin-7-yloxy)picolinamide]
EC50 (A2780 cells; [2]): 5 to 10 µM

Compound: CNC(=O)c1cccc2cnc(Nc3ccc(S(N)(=O)=O)cc3)nc12 [Compound 623, N-methyl-2-(4-sulfamoylphenylamino)quinazoline-8-carboxamide]
EC50 (A2780 cells; [2]): < 5 µM

Compound: NS(=O)(=O)c1ccc(Nc2ncc3cccc(C(=O)NC4CCOCC4)c3n2)cc1 [Compound 625, 2-(4-sulfamoylphenylamino)-N-(tetrahydro-2H-pyran-4-yl)quinazoline-8-carboxamide]
EC50 (A2780 cells; [2]): < 5 µM
